In patent publication US20240368605A1, “USE OF SPLICE SWITCHING OLIGONUCLEOTIDES FOR EXON SKIPPING-MEDIATED KNOCKDOWN OF PIM2” (INSTITUT NATIONAL DE LA SANTÉ ET DE LA RECHERCHE MÉDICALE, priority 2021, published 2024):

How the values were obtained:
Type in all cases: cell-based, human
[1] = tested on: IRF4, PRDM1, XBPIS, BACH2, BCL6, SPIB, IRF8 and PAX5; assay: Transcription factor mRNA relative expression in generated PBs; conditions: SSO-PIM2 present
Method: FIG. 1. Specific PIM2 inhibition affects the generation of plasmablasts • A. Diagram explaining SSO-PIM2 action. It binds to the second exon of the gene PIM2 leading in a skip of this exon during transcription and finally results to a frame shift and created an early stop-codon during translation. The protein is so a non-functional truncated protein. • B. Activated B cells were treated at D4 with an increasing dose of SSO-PIM2 and SSO-CTL (control condition) and recovered 48 hours later (at D6). PIM2 mRNA residual expression compared to the control condition adjust at 100% (mean±SD, n=3) and agarose gel of PIM2 PCR, showing exon skipping. • C. At D4, activated B cells were treated with SSO-PIM2 and SSO-CTL (control condition) at 2 μM. CD23+ aBC and PB were sorted at D6. PIM2 mRNA relative expression (mean±SD, n=4) (left) and PIM2 protein expression by western blot (middle) and immunofluorescence (right) after PIM2 inhibition. • D-E. Decrease of PB generation after PIM2 inhibition. Cells were treated with SSO-PIM2 at 2 μM (D) or increase dose of the PIM inhibitor AZD1208 (PIMi as indicated, in μM) (E) and their control condition (SSO-CTL and DMSO respectively). The untreated condition is referred as “NT” (=no treatment). Left: Absolute number of PB obtained at D6 after PIM2 inhibition. […] Right: Proportion of PB evaluated at D6 by flow cytometry after treatment with SSO-PIM2 at 2 μM. […]

PIM2 = PIM2 expression in in vitro differentiated activated B cells / plasmablasts after SSO treatment (mRNA, PCR, western blot, immunofluorescence)
Method: FIG. 1. Specific PIM2 inhibition affects the generation of plasmablasts • A. Diagram explaining SSO-PIM2 action. It binds to the second exon of the gene PIM2 leading in a skip of this exon during transcription and finally results to a frame shift and created an early stop-codon during translation. The protein is so a non-functional truncated protein. • B. Activated B cells were treated at D4 with an increasing dose of SSO-PIM2 and SSO-CTL (control condition) and recovered 48 hours later (at D6). PIM2 mRNA residual expression compared to the control condition adjust at 100% (mean±SD, n=3) and agarose gel of PIM2 PCR, showing exon skipping. • C. At D4, activated B cells were treated with SSO-PIM2 and SSO-CTL (control condition) at 2 μM. CD23+ aBC and PB were sorted at D6. PIM2 mRNA relative expression (mean±SD, n=4) (left) and PIM2 protein expression by western blot (middle) and immunofluorescence (right) after PIM2 inhibition. • D-E. Decrease of PB generation after PIM2 inhibition. Cells were treated with SSO-PIM2 at 2 μM (D) or increase dose of the PIM inhibitor AZD1208 (PIMi as indicated, in μM) (E) and their control condition (SSO-CTL and DMSO respectively). The untreated condition is referred as “NT” (=no treatment). Left: Absolute number of PB obtained at D6 after PIM2 inhibition. Data are representative with bars at mean±SD, n=6. Right: Proportion of PB evaluated at D6 by flow cytometry after treatment with SSO-PIM2 at 2 μM. Data are representative of six independent experiments. • F. Transcription factors (IRF4, PRDM1, XBPIS, BACH2, BCL6, SPIB, IRF8 and PAX5) mRNA relative expression after specific PIM2 inhibition. Data are representative with bars at mean±SD, n=4.
To identify genes whose transcription was acutely regulated during the final commitment step we developed our previously described in vitro differentiation model system on human naive B cells (NBCs) giving at day-6 (D6) four cell populations that were explored transcriptionally (data not shown) (Caron et al., 2015; Le Gallou et al., 2012; Pignarre et al., 2021). […]

p21^Cip1/WAF1 = assay: CDKN1A gene and p21^Cip1/WAF1 protein expression in PBs
Text: Like p27^Kip1, p21^Cip1/WAF1 is a tight-binding inhibitor of CDKs and inhibits cell cycle entry into S phase (Elledge et al., 1996). Plasmablast commitment leads to a significant increase of the CDKN1A gene, which encodes p21^Cip1/WAF1, and this independently to the expression of TP53 (data not shown). […] We then wondered whether PIM2 could modify p21^Cip1/WAF1 expression. […] To address this scenario, we developed endogenous protein immunoprecipitation (IP) and found in generated PBs and XG21 cell line as well that PIM2, p21^Cip1/WAF1 and HSP90β form a cytoplasmic multiprotein complex (data not shown).

5′-CCTCATGACGGATACCTGGAGTC-3′ (all phosphorodiamidate morpholino (PMO)) [SSO-PIM2]
expression of key transcription factors involved in B cell differentiation in generated PBs [1]: not affected | PIM2 knockdown (PIM2; 2 μM): near-knockout condition for PIM2 | duration of PIM2 near-knockout (PIM2; 2 μM): up to 96 h | inhibition of PIM2 expression (PIM2; D6 collected PBs, increasing dose added at D4, 48 hours): dose-dependent inhibition of PIM2 expression | CDKN1A gene upregulation in PBs (p21^Cip1/WAF1): did not interfere with CDKN1A gene upregulation | p21^Cip1/WAF1 protein expression and localization (p21^Cip1/WAF1; PBs): decreased dramatically its cytoplasmic expression without nuclear relocalization
